# According to patent US20260151516A1, “NEW PET TRACER FOR IMAGING OF THE FUNCTIONAL HEPATIC RESERVE” (Medizinische Universität Innsbruck, priority 2022, published 2026):
# Experiments:
# [1] = Partition coefficient (log D), n-Octanol/PBS; type: physicochemical
# Procedure: The vials were vortexed for 5 min at 1,500 rpm and then centrifuged for 5 min at 20,000 rcf (Eppendorf Centrifuge 5424).
# human serum = experiment: Protein binding in fresh human serum (Sephadex MicroSpin G-50 columns); type: in vitro ADME; settings: 37° C., 30 min
# Procedure: Protein binding was determined for different time points (2 min, 30 min, 60 min, 120 min) in triplicates using Sephadex MicroSpin G-50 columns (GE-Healthcare, Chicago, Illinois, USA). The columns were spun initially at 20,000 rcf for 1 min to remove the storage buffer. Then approx. 5 MBq of radioligand was added to 1 mL of fresh human serum and incubated at 37° C. At each given timepoint 25 μL of the mixture was loaded on to the column, which was then spun at 20,000 rcf for 1 min. The activity content on the column (free radioligand) and in the filtrate (protein bound fraction) was quantified in a γ-counter.
# [2] = Biodistribution studies incl. blocking experiments; type: in vivo; settings: healthy BALB/c mice
# Procedure: For biodistribution studies 6 week old female BALB/c mice (n=3) were injected with 0.1 nmol (100 μL, approx. 1 MBq) of labelled compound via the lateral tail vein and sacrificed after 10, 30, or 60 min by cervical dislocation. The mice were dissected, blood and organs (spleen, pancreas, stomach, intestine, liver, kidney, heart, lung, muscle, and bone) were weighed, and their activity measured in a γ-counter. For blocking experiments, mice were co-injected with 100 μL of a 277 mM Galactose/PBS solution. In case of [^68Ga]Ga-TRAP-GalNAc a 277 mM N-Acetylgalactose solution was used.
# [3] = Ligand stability in human blood serum (radio-HPLC); type: in vitro ADME; settings: 37° C., 120 min
# Procedure: Ligand stability in human blood serum (n=2) and PBS (n=1) was determined for different time points (2 min, 30 min, 60 min, 120 min). Therefore, approx. 5 MBq of radioligand was added to 1 mL of fresh human serum or PBS and incubated at 37° C. At each given time point 100 μL of the mixture were transferred to a 1.5 mL Eppendorf tube containing 100 μL of acetonitrile. The vial was vortexed and centrifuged for 2 min at 14,000 rpm before 100 μL of the supernatant were diluted with 200 μL of water and injected into analytical radio-HPLC. The PBS solution was directly injected into the radio-HPLC. Ligand stability was determined by integrating the areas of the signals in the radio chromatogram in relation to the signal of the intact ligand.
# [4] = 30 min p.i., blocking with 277 mM N-Acetylgalactose
structure (smiles),measurement,setting,value
CC(=O)N[C@H]1[C@H](OCCOCCOCCn2cc(CNC(=O)CCP(=O)([O-])CN3CCN(CP(=O)([O-])CCC(=O)NCc4cn(CCOCCOCCO[C@@H]5O[C@H](CO)[C@H](O)[C@H](O)[C@H]5NC(C)=O)nn4)CCN(CP(=O)([O-])CCC(=O)NCc4cn(CCOCCOCCO[C@@H]5O[C@H](CO)[C@H](O)[C@H](O)[C@H]5NC(C)=O)nn4)CC3)nn2)O[C@H](CO)[C@H](O)[C@@H]1O.[68Ga+3] [[^68Ga]Ga-TRAP-GalNAc],logD,[1],−4.2±0.08
same,Protein binding (%),human serum,24.3 ± 5.2%
same,Liver uptake compared with [^99mTc]Tc-GSA,[2],comparable
same,Biodistribution Blood,[2]; 10 min p.i.,0.64 ± 0.04 % ID/g
same,Biodistribution Femur,[2]; 10 min p.i.,0.27 ± 0.04 % ID/g
same,Biodistribution Heart,[2]; 10 min p.i.,0.69 ± 0.12 % ID/g
same,Biodistribution Intestine,[2]; 10 min p.i.,0.63 ± 0.06 % ID/g
same,Biodistribution Kidneys,[2]; 10 min p.i.,1.43 ± 0.10 % ID/g
same,Biodistribution Liver,[2]; 10 min p.i.,69.1 ± 4.18 % ID/g
same,Biodistribution Lung,[2]; 10 min p.i.,0.92 ± 0.11 % ID/g
same,Biodistribution Muscle,[2]; 10 min p.i.,0.55 ± 0.03 % ID/g
same,Biodistribution Pancreas,[2]; 10 min p.i.,0.92 ± 0.17 % ID/g
same,Biodistribution Spleen,[2]; 10 min p.i.,0.24 ± 0.05 % ID/g
same,Biodistribution Stomach,[2]; 10 min p.i.,0.86 ± 0.15 % ID/g
same,Biodistribution Blood,[2]; 30 min p.i.,0.57 ± 0.09 % ID/g
same,Biodistribution Femur,[2]; 30 min p.i.,0.47 ± 0.12 % ID/g
same,Biodistribution Heart,[2]; 30 min p.i.,0.73 ± 0.02 % ID/g
same,Biodistribution Intestine,[2]; 30 min p.i.,4.16 ± 0.35 % ID/g
same,Biodistribution Kidneys,[2]; 30 min p.i.,1.68 ± 0.30 % ID/g
same,Biodistribution Liver,[2]; 30 min p.i.,63.88 ± 2.23 % ID/g
same,Biodistribution Lung,[2]; 30 min p.i.,1.02 ± 0.06 % ID/g
same,Biodistribution Muscle,[2]; 30 min p.i.,0.74 ± 0.08 % ID/g
same,Biodistribution Pancreas,[2]; 30 min p.i.,1.50 ± 0.49 % ID/g
same,Biodistribution Spleen,[2]; 30 min p.i.,0.20 ± 0.02 % ID/g
same,Biodistribution Stomach,[2]; 30 min p.i.,1.60 ± 0.56 % ID/g
same,Biodistribution Blood,[2]; [4],0.80 ± 0.04 % ID/g
same,Biodistribution Femur,[2]; [4],0.32 ± 0.12 % ID/g
same,Biodistribution Heart,[2]; [4],0.31 ± 0.02 % ID/g
same,Biodistribution Intestine,[2]; [4],0.71 ± 0.06 % ID/g
same,Biodistribution Kidneys,[2]; [4],2.86 ± 0.21 % ID/g
same,Biodistribution Liver,[2]; [4],10.98 ± 0.44 % ID/g
same,Biodistribution Lung,[2]; [4],0.73 ± 0.02 % ID/g
same,Biodistribution Muscle,[2]; [4],0.28 ± 0.05 % ID/g
same,Biodistribution Pancreas,[2]; [4],0.39 ± 0.04 % ID/g
same,Biodistribution Spleen,[2]; [4],0.24 ± 0.01 % ID/g
same,Biodistribution Stomach,[2]; [4],0.53 ± 0.06 % ID/g
same,Biodistribution Blood,[2]; 60 min p.i.,0.23 ± 0.02 % ID/g
same,Biodistribution Femur,[2]; 60 min p.i.,0.49 ± 0.11 % ID/g
same,Biodistribution Heart,[2]; 60 min p.i.,0.82 ± 0.27 % ID/g
same,Biodistribution Intestine,[2]; 60 min p.i.,4.53 ± 0.35 % ID/g
same,Biodistribution Kidneys,[2]; 60 min p.i.,0.79 ± 0.07 % ID/g
same,Biodistribution Liver,[2]; 60 min p.i.,54.20 ± 7.95 % ID/g
same,Biodistribution Lung,[2]; 60 min p.i.,0.71 ± 0.10 % ID/g
same,Biodistribution Muscle,[2]; 60 min p.i.,0.57 ± 0.01 % ID/g
same,Biodistribution Pancreas,[2]; 60 min p.i.,0.76 ± 0.11 % ID/g
same,Biodistribution Spleen,[2]; 60 min p.i.,0.17 ± 0.05 % ID/g
same,Biodistribution Stomach,[2]; 60 min p.i.,0.54 ± 0.02 % ID/g
same,Serum stability (% of intact ligand),[3],high serum stability
same,Serum stability (% of intact ligand),[3]; listed as [^68Ga]Ga-TRAP-GalNAC,99.7 ± 0.1%
